{"source": "a melting point compilation (Tetko et al.; mined from patent text by program, amines drawn as free bases though some values may be those of a salt)", "data": [{"units": {"melting point": "°C"}, "values": [{"smiles": "CCCC(=O)Nc1c(C)cccc1C", "melting point": "134 to 136"}, {"smiles": "COc1c(Cl)ccc(C#N)c1F", "melting point": "94 to 97"}, {"smiles": "CCOC(=O)c1cc2c(O)nncc2nc1NC", "melting point": "290 to 292"}, {"smiles": "Nc1sc2c(c1C(=O)c1cc3ccccc3o1)CCCC2", "melting point": "86 to 89"}, {"smiles": "O=C(O)COc1cc(Cl)ccc1C(=O)NCc1nc2cc(C(F)(F)F)ccc2s1", "melting point": "225 to 227"}, {"smiles": "Cc1ccc(C(=O)OC(C)c2nc3c(c(=O)n(C)c(=O)n3C)n2C)cn1", "note": "(stereo unspecified)", "melting point": "165 to 180"}, {"smiles": "CN(C)C=C(C#N)C(=O)c1ccc(-n2ccnc2)cc1", "melting point": 165}, {"smiles": "Cn1c(C(N)=O)c(-c2ccc(NC(=O)Nc3cc(C(F)(F)F)ccc3F)cc2)c2ccccc21", "melting point": "> 260"}, {"smiles": "COc1cccc(CNc2nc(NC[C@@H](C)O)nc3c2ncn3C(C)C)c1O", "melting point": "100 to 103"}, {"smiles": "CCc1nc2c(N)nc3ccccc3c2n1CC1(O)CCS(=O)(=O)CC1", "melting point": "> 250"}, {"smiles": "Cc1c(-n2ccnc2)n(CCCCCCCC(=O)O)c2ccccc12", "melting point": "101 to 103"}, {"smiles": "Cc1noc(NS(=O)(=O)c2ccc(-c3ccccc3)cc2)c1Br", "melting point": "133 to 135"}, {"smiles": "Cc1cccc(C=CC=C2SC(=S)N(CC(=O)O)C2=O)c1", "melting point": "220 to 226"}, {"smiles": "COC(CN(C)C(=O)Nc1nnc(C(C)Oc2ccc(Cl)cc2)s1)OC", "note": "(stereo unspecified)", "melting point": "116 to 118"}, {"smiles": "COCn1ccnc1C(O)(c1ccc(Cl)cc1)c1ccc(Cl)cc1", "melting point": "145 to 146"}, {"smiles": "CCOC(=O)CNC(=O)C[C@H]1O[C@@H](c2ccccc2)c2cc(Cl)ccc2N(C(C)C)C1=O", "note": "(relative stereo)", "melting point": "188 to 190"}, {"smiles": "CC(C)(C)c1ccc2ncc(C(=O)NCc3ccc(Cl)cc3)c(O)c2c1", "melting point": 266}, {"smiles": "Cc1ccc(-c2nc(-c3ccc(C(=O)NCCCBr)cc3)cs2)cc1", "melting point": "175 to 177"}, {"smiles": "N=C(N)NNC1=NS(=O)(=O)c2ccccc21", "melting point": "252 to 253"}, {"smiles": "C=CCOc1ccc(C)c2c1C(=O)C1CCCCC21", "note": "(stereo unspecified)", "melting point": "106 to 107"}, {"smiles": "Cc1cc2c(cc1Br)cc1n2[C@H](C)CN(C(=O)OC(C)(C)C)C1", "melting point": "113 to 114"}, {"smiles": "CS(=O)c1ccc(C2ON2S(=O)(=O)c2ccccc2)cc1", "note": "(stereo unspecified)", "melting point": "115 to 118"}, {"smiles": "CSCC(C)Nc1nccc(-c2ccnc(Cl)c2)n1", "note": "(stereo unspecified)", "melting point": "103 to 106"}, {"smiles": "CCC(=O)NCCc1c[nH]c2ccc3c(c12)CCCO3", "melting point": "106 to 107"}, {"smiles": "COc1ccc(Cc2n[nH]c(=O)c3ccccc23)cc1N", "melting point": "212 to 214"}, {"smiles": "CC(C)CCOc1cccc2c1C(=O)CC(c1nnn[nH]1)O2", "note": "(stereo unspecified)", "melting point": "134 to 137"}, {"smiles": "CC(C)(C)OC(=O)N[C@@H]1C[C@H](CO)[C@@H](O)C1", "melting point": "126 to 128"}, {"smiles": "CCc1cc2c(s1)-c1ccccc1C(CC)N2S(=O)(=O)c1ccc(O)cc1", "note": "(stereo unspecified)", "melting point": "119 to 122"}, {"smiles": "O=C(Nc1ccccc1S(=O)(=O)c1ccccc1)N[C@@H](Cc1ccc(NC(=O)c2c(Cl)cccc2Cl)cc1)C(=O)O", "melting point": 227}, {"smiles": "NC1CN(c2c(F)c(F)c3c(=O)c(C(=O)O)cn(C4CC4)c3c2F)CC1CF", "note": "(stereo unspecified)", "melting point": "252 to 253"}, {"smiles": "COc1ccc2nc(SC3CCCc4ccc(O)nc43)[nH]c2c1", "note": "(stereo unspecified)", "melting point": "217 to 218"}, {"smiles": "C=CCOc1ccccc1S(=O)(=O)NC(=O)Nc1nc(C)cc(C)n1", "melting point": "199 to 200"}, {"smiles": "CCNC(=O)n1nc(Oc2c(Cl)cc(C(F)(F)F)cc2Cl)cc1C(C)C", "melting point": "74 to 76"}, {"smiles": "C=C(CCCC(=O)N1CCC[C@@H](C(=O)OC(C)(C)C)N1)C(=O)O", "melting point": "86 to 88"}, {"smiles": "O=c1cc2c(nn1Cc1ccc(Cl)cc1)-c1cc(Br)sc1SCC2", "melting point": "152 to 154"}, {"smiles": "CC1C(=O)Oc2cc(N3CCCCCC3)ccc21", "note": "(stereo unspecified)", "melting point": "57 to 59"}, {"smiles": "COc1cc(C=O)cc(-c2cc3c(cc2F)c(=O)c(C(=O)O)cn3C2CC2)c1OC", "melting point": "> 230"}, {"smiles": "Cc1ccc(CS(=O)c2nc3cc4c(cc3[nH]2)CCC4)nc1", "note": "(stereo unspecified)", "melting point": "190 to 191"}, {"smiles": "CC(=O)Oc1cc(-c2ccccc2)oc(=O)c1Sc1ccccc1C(C)C", "melting point": "113 to 115"}, {"smiles": "Cc1ncc(Cn2c(CC3CCN(Cc4ccccc4)CC3)nc3ccccc32)o1", "melting point": 109}, {"smiles": "CCN1CCC(C(=O)NO)(S(=O)(=O)c2ccc(OC)cc2)CC1", "melting point": 85}, {"smiles": "COCC1CN(c2ccc3nc(C(O)CCCO)sc3c2)C(=O)O1", "note": "(stereo unspecified)", "melting point": "137 to 138"}, {"smiles": "Cn1nc(-c2ncc(Cl)cc2F)c(Cl)c1C(F)(F)F", "melting point": "76 to 78"}, {"smiles": "CN1CCN(C2=Nc3ccccc3Sc3ccccc32)C[C@@H]1CCc1ccccc1", "melting point": "44 to 54"}, {"smiles": "Oc1cccc(-c2cc3n(n2)-c2ccccc2CC3)c1", "melting point": "172 to 175"}, {"smiles": "C=C1CCC2C3CCC4CC(OCOC)CCC4(C)C3CCC12C", "note": "(stereo unspecified)", "melting point": "73 to 75"}, {"smiles": "COc1cc(CC(=O)NCCOc2ccc(C)c(C)c2)ccc1OCCN", "melting point": "95 to 97"}, {"smiles": "CC(=O)OC1CCN(c2ccc3[nH]c(=O)ccc3c2)CC1", "melting point": "245 to 250"}, {"smiles": "O=C(Nc1cccc(NC(=O)C(F)(F)F)c1)Nc1ccc(Cl)c(Cl)c1", "melting point": "221 to 223"}, {"smiles": "Fc1ccc2sc(COc3cccc(CBr)c3)nc2c1", "melting point": "99 to 100"}, {"smiles": "O=C(CC(F)=C(F)F)Nc1cccc(C(=O)O)c1", "melting point": "252 to 255"}]}]}
